Reference: patent US7531312B2, “Simplified biological evaluation method of natural and artificial chemicals by using DNA injury index and apparatus therefor” (TAS Project Co., Ltd., priority 2000, dated 2009)
Entries after “also recorded” stand apart in the source; their conditions may differ.

Tests used:
[1] = test system: 2′-deoxyguanosine (dG); experiment: 8OHdG produced from added dG, standing at room temperature or UV irradiation (Examples 1-7); conditions: for evaluation in words: oxidation induction or antioxidant ability toward dG: conclusions of Examples 2-7; for 8OHdG concentration, UV irradiation 60 minutes: ultrapure water 0.392; for 8OHdG concentration, UV irradiation 90 minutes: ultrapure water 0.901; for 8OHdG concentration, UV irradiation 120 minutes: ultrapure water 1.183;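 as to all read-outs here: Cell-free test: dG in test solution, held at room temperature or exposed to 254 nm UV, then 8OHdG quantified by HPLC with electrochemical detection, compared against dG in ultrapure water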
Description: Separately, the amount of 8OHdG after an ultrapure water solution of dG is left to stand under the same conditions as above for a predetermined time is measured (this value is defined as B). If A is greater than B, the test substance is evaluated to have oxidation induction ability and conversely if A is smaller than B, the test substance is evaluated to have antioxidant ability. In either case, it is judged that the greater the difference is, the greater degree of oxidation induction ability or antioxidant capability the test substance has.
Then, 20 μl of 200 μg/ml dG (dissolved in ultrapure water) was added to each well and one of the plates was left to stand as it was at room temperature for 90 minutes and the other plate was irradiated with UV light (254 nm, 860 μW/cm^2) for 90 minutes in a UV light irradiation box. […] Subsequently, nucleosides in the both were quantified by use of the UV light absorption analyzer connected to the HPLC and the electrochemical detector.
Solutions of predetermined concentrations of vitamin C (VC), vitamin E (VE), catechin (Cate) and tannic acid (Tan) were prepared and 180 μl portions were injected into each well of two 99-well plastic plates. Then, 20 μl of 200 μg/ml dG (dissolved in ultrapure water) was added to each well and one of the plates was left to stand as it was at room temperature for 90 minutes and the other plate was irradiated with UV light (254 nm, 860 μW/cm^2) for 90 minutes in a UV light irradiation box.
Then, 20 μl of 200 μg/ml dG (dissolved in ultrapure water) was added to each well and one of the plates was left to stand as it was at room temperature for 90 minutes and another plate was left to stand similarly at room temperature for 24 hours. The remaining three plates were irradiated with UV light (254 nm, 860 μW/cm^2) for 60 minutes, 90 minutes and 120 minutes, respectively, in a UV light irradiation box.
Solutions of predetermined concentrations of glucose (Glu), raffinose (Raffi) and sucrose (Suc) were prepared and 180 μl portions thereof were injected into each well of four 99-well plastic plates. Then, 20 μl of 200 μg/ml dG (dissolved in ultrapure water) was added to each well and one of the plates was left to stand as it was at room temperature for 90 minutes. The remaining three plates were irradiated with UV light (254 nm, 860 μW/cm^2) for 60 minutes, 90 minutes and 120 minutes, respectively, in a UV light irradiation box.
Then, 20 μl of 200 μg/ml dG (dissolved in ultrapure water) was added to each well and one of the plates was left to stand as it was at room temperature for 90 minutes and the other plate was irradiated with UV light (254 nm, 860 μW/cm^2) for 90 minutes in a UV light irradiation box.
Solutions of various concentrations of uric acid (dissolving fluid: distilled water+0.025% FBS) were prepared and 180 μl portions thereof were injected into each well of two 99-well plastic plates. Then, 20 μl of 200 μg/ml dG (dissolved in ultrapure water) was added to each well and one of the plates was left to stand as it was at room temperature for 90 minutes and the other plate was irradiated with UV light (254 nm, 860 μW/cm^2) for 90 minutes in a UV light irradiation box.

[2] = test system: 2′-deoxyguanosine (dG); experiment: 8OHdG produced from dG with test substance and coexisting bisphenol A, standing or UV (Example 9); assay type: biochemical; conditions: for effect on 8OHdG with BPA and UV light irradiation: Example 9
Description: 170 μl portions of ultrapure water and predetermined concentrations of vitamin C (VC), vitamin E (VE), and glucose (Glu) as test substance were added to each well of two […] plastic plates and, as additional solution, 20 μl of ultrapure water or predetermined concentration of bisphenol A (BPA) were injected into each well.

[3] = 1 μg/ml, Table 5, ultrapure water 0.219
[4] = 1 μg/ml, Table 5, ultrapure water 0.422
[5] = 10 μg/ml, Table 5, ultrapure water 0.219
[6] = 10 μg/ml, Table 5, ultrapure water 0.422
[7] = 100 μg/ml, Table 5, ultrapure water 0.219
[8] = 100 μg/ml, Table 5, ultrapure water 0.422
[9] = 1 mg/ml, Table 5, ultrapure water 0.219
[10] = 1 mg/ml, Table 5, ultrapure water 0.422
[11] = 1 μg/ml, Table 2, distilled water 0.15
[12] = 10 μg/ml, Table 2, distilled water 0.15
[13] = test substance 0.00001%, additional solution BPA (50 ppm), BPA alone 11.58
[14] = test substance 0.0001%, additional solution BPA (50 ppm), BPA alone 11.58
[15] = test substance 0.001%, additional solution BPA (50 ppm), BPA alone 0.22
[16] = test substance 0.001%, additional solution BPA (50 ppm), BPA alone 11.58
[17] = test substance 0.001%, additional solution ultrapure water

N=C(N)NCCC[C@H](N)C(=O)O [Arg, 1-arginine]
8OHdG concentration, 90 Minutes' standing [1, 3]: 0.186 ng/mL
8OHdG concentration, 90 Minutes' UV irradiation [1, 4]: 0.323 ng/mL
8OHdG concentration, 90 Minutes' standing [1, 5]: 0.153 ng/mL
8OHdG concentration, 90 Minutes' UV irradiation [1, 6]: 0.253 ng/mL
8OHdG concentration, 90 Minutes' standing [1, 7]: 0.150 ng/mL
8OHdG concentration, 90 Minutes' UV irradiation [1, 8]: 0.305 ng/mL
8OHdG concentration, 90 Minutes' standing [1, 9]: 0.173 ng/mL
8OHdG concentration, 90 Minutes' UV irradiation [1, 10]: 0.299 ng/mL
evaluation in words: oxidation induction or antioxidant ability toward dG [1]: exhibited antioxidant ability

NC(=O)NCCC[C@H](N)C(=O)O [Cit, 1-citrulline]
8OHdG concentration, 90 Minutes' standing [1, 3]: 0.184 ng/mL
8OHdG concentration, 90 Minutes' UV irradiation [1, 4]: 0.332 ng/mL
8OHdG concentration, 90 Minutes' standing [1, 5]: 0.179 ng/mL
8OHdG concentration, 90 Minutes' UV irradiation [1, 6]: 0.305 ng/mL
8OHdG concentration, 90 Minutes' standing [1, 7]: 0.120 ng/mL
8OHdG concentration, 90 Minutes' UV irradiation [1, 8]: 0.225 ng/mL
8OHdG concentration, 90 Minutes' standing [1, 9]: 0.156 ng/mL
8OHdG concentration, 90 Minutes' UV irradiation [1, 10]: 0.125 ng/mL
evaluation in words: oxidation induction or antioxidant ability toward dG [1]: exhibited antioxidant ability

Oc1ccc(/C=C/c2cc(O)cc(O)c2)cc1 [RVT, Resveratol]
8OHdG concentration, 90 Minutes' UV irradiation ([1]; 0.0005 ppm, Table 1, ultrapure water 0.529): 1.026 ng/mL
8OHdG concentration, 90 Minutes' UV irradiation ([1]; 0.005 ppm, Table 1, ultrapure water 0.529): 0.690 ng/mL
8OHdG concentration, 90 Minutes' UV irradiation ([1]; 0.05 ppm, Table 1, ultrapure water 0.529): 0.571 ng/mL
8OHdG concentration, 90 Minutes' UV irradiation ([1]; 0.5 ppm, Table 1, ultrapure water 0.529): 1.378 ng/mL
8OHdG concentration, 90 Minutes' UV irradiation ([1]; 5 ppm, Table 1, ultrapure water 0.529): 5.582 ng/mL
concentration at which oxidation injury activity due to UV light is elevated (harmfulness increased) ([1]; Example 1, 90 minutes UV): ≥ 0.5 ppm

NCCCNCCCCNCCCN [Spe, spermine]
8OHdG concentration, 90 Minutes' standing [1, 3]: 0.140 ng/mL
8OHdG concentration, 90 Minutes' UV irradiation [1, 4]: 0.297 ng/mL
8OHdG concentration, 90 Minutes' standing [1, 5]: 0.150 ng/mL
8OHdG concentration, 90 Minutes' UV irradiation [1, 6]: 0.328 ng/mL
8OHdG concentration, 90 Minutes' standing [1, 7]: 0.154 ng/mL
8OHdG concentration, 90 Minutes' UV irradiation [1, 8]: 0.351 ng/mL
8OHdG concentration, 90 Minutes' standing [1, 9]: 0.179 ng/mL
8OHdG concentration, 90 Minutes' UV irradiation [1, 10]: 0.112 ng/mL
evaluation in words: oxidation induction or antioxidant ability toward dG [1]: exhibited antioxidant ability

OC[C@H]1O[C@@](CO)(O[C@H]2O[C@H](CO)[C@@H](O)[C@H](O)[C@H]2O)[C@@H](O)[C@@H]1O [Suc, sucrose]
8OHdG concentration, 90 Minutes' standing ([1]; 0.1 μg/ml, Table 4, ultrapure water 0.195): 0.235 ng/mL
8OHdG concentration, UV irradiation 60 minutes ([1]; 0.1 μg/ml, Table 4): 0.299 ng/mL
8OHdG concentration, UV irradiation 90 minutes ([1]; 0.1 μg/ml, Table 4): 0.756 ng/mL
8OHdG concentration, UV irradiation 120 minutes ([1]; 0.1 μg/ml, Table 4): 1.073 ng/mL
8OHdG concentration, 90 Minutes' standing ([1]; 1 μg/ml, Table 4, ultrapure water 0.195): 0.185 ng/mL
8OHdG concentration, UV irradiation 60 minutes ([1]; 1 μg/ml, Table 4): 0.358 ng/mL
8OHdG concentration, UV irradiation 90 minutes ([1]; 1 μg/ml, Table 4): 0.708 ng/mL
8OHdG concentration, UV irradiation 120 minutes ([1]; 1 μg/ml, Table 4): 1.143 ng/mL
8OHdG concentration, 90 Minutes' standing ([1]; 10 μg/ml, Table 4, ultrapure water 0.195): 0.235 ng/mL
8OHdG concentration, UV irradiation 60 minutes ([1]; 10 μg/ml, Table 4): 0.333 ng/mL
8OHdG concentration, UV irradiation 90 minutes ([1]; 10 μg/ml, Table 4): 0.690 ng/mL
8OHdG concentration, UV irradiation 120 minutes ([1]; 10 μg/ml, Table 4): 1.279 ng/mL
8OHdG concentration, 90 Minutes' standing ([1]; 100 μg/ml, Table 4, ultrapure water 0.195): 0.280 ng/mL
8OHdG concentration, UV irradiation 90 minutes ([1]; 100 μg/ml, Table 4): 0.379 ng/mL
8OHdG concentration, UV irradiation 120 minutes ([1]; 100 μg/ml, Table 4): 0.648 ng/mL
8OHdG concentration, 90 Minutes' standing ([1]; 1 mg/ml, Table 4, ultrapure water 0.195): 0.300 ng/mL
8OHdG concentration, UV irradiation 60 minutes ([1]; 1 mg/ml, Table 4): 0.127 ng/mL
8OHdG concentration, UV irradiation 90 minutes ([1]; 1 mg/ml, Table 4): 0.309 ng/mL
8OHdG concentration, UV irradiation 120 minutes ([1]; 1 mg/ml, Table 4): 0.364 ng/mL
evaluation in words: oxidation induction or antioxidant ability toward dG [1]: Glu>Raffi≈Suc; also recorded: antioxidant ability as potent as that of Raffi

O=C(OC[C@H]1O[C@@H](OC(=O)c2cc(O)c(O)c(OC(=O)c3cc(O)c(O)c(O)c3)c2)[C@H](OC(=O)c2cc(O)c(O)c(OC(=O)c3cc(O)c(O)c(O)c3)c2)[C@@H](OC(=O)c2cc(O)c(O)c(OC(=O)c3cc(O)c(O)c(O)c3)c2)[C@@H]1OC(=O)c1cc(O)c(O)c(OC(=O)c2cc(O)c(O)c(O)c2)c1)c1cc(O)c(O)c(OC(=O)c2cc(O)c(O)c(O)c2)c1 [Tan, tannic acid]
8OHdG concentration, 90 Minutes' standing [1, 11]: 0.84 ng/mL
8OHdG concentration, 90 Minutes' UV irradiation ([1]; 1 μg/ml, Table 2, distilled water 1.23): 1.04 ng/mL
8OHdG concentration, 90 Minutes' standing [1, 12]: 5.64 ng/mL
8OHdG concentration, 90 Minutes' UV irradiation ([1]; 10 μg/ml, Table 2, distilled water 1.23): 19.29 ng/mL
8OHdG concentration, 90 Minutes' standing ([1]; 100 μg/ml, Table 2, distilled water 0.15): 54.00 ng/mL
8OHdG concentration, 90 Minutes' UV irradiation ([1]; 100 μg/ml, Table 2, distilled water 1.23): 97.07 ng/mL
evaluation in words: oxidation induction or antioxidant ability toward dG [1]: high gene injury inducing effect

O=C1O[C@H]([C@@H](O)CO)C(O)=C1O [VC, ascorbic acid]
effect on 8OHdG with BPA and UV light irradiation [2]: does not cancel the induction of 8OHdG by BPA
8OHdG concentration, 90 Minutes' UV irradiation [2, 13]: 14.96 ng/mL
8OHdG concentration, 90 Minutes' UV irradiation [2, 14]: 15.95 ng/mL
8OHdG concentration, 90 Minutes' standing [2, 15]: 1.51 ng/mL
8OHdG concentration, 90 Minutes' UV irradiation [2, 16]: 12.53 ng/mL
8OHdG concentration, 90 Minutes' UV irradiation [2, 17]: 5.75 ng/mL
8OHdG concentration, 90 Minutes' standing [2, 17]: 16.3 ng/mL
8OHdG concentration, 90 Minutes' standing ([1]; 0.00001%, Table 2, distilled water 0.15): 0.44 ng/mL
8OHdG concentration, 90 Minutes' UV irradiation ([1]; 0.00001%, Table 2, distilled water 1.23): 0.46 ng/mL
8OHdG concentration, 90 Minutes' standing ([1]; 0.0001%, Table 2, distilled water 0.15): 0.63 ng/mL
8OHdG concentration, 90 Minutes' UV irradiation ([1]; 0.0001%, Table 2, distilled water 1.23): 1.51 ng/mL
8OHdG concentration, 90 Minutes' standing ([1]; 0.001%, Table 2, distilled water 0.15): 6.04 ng/mL
8OHdG concentration, 90 Minutes' UV irradiation ([1]; 0.001%, Table 2, distilled water 1.23): 38.36 ng/mL
evaluation in words: oxidation induction or antioxidant ability toward dG [1]: very strong oxidation inducing substance
8OHdG induction on storage ([1]; stored for a long period added to a dG solution in contact with air): a large amount of 8OHdG was induced

Cc1c(C)c2c(c(C)c1O)CC[C@@](C)(CCC[C@H](C)CCC[C@H](C)CCCC(C)C)O2 [VE, vitamin E]
effect on 8OHdG with BPA and UV light irradiation [2]: significantly inhibit the increase in 8OHdG
8OHdG concentration, 90 Minutes' UV irradiation [2, 13]: 15.43 ng/mL
8OHdG concentration, 90 Minutes' UV irradiation [2, 14]: 8.27 ng/mL
8OHdG concentration, 90 Minutes' standing [2, 15]: 0.29 ng/mL
8OHdG concentration, 90 Minutes' UV irradiation [2, 16]: 3.79 ng/mL
8OHdG concentration, 90 Minutes' UV irradiation [2, 17]: 0.28 ng/mL
8OHdG concentration, 90 Minutes' standing [2, 17]: 0.18 ng/mL
8OHdG concentration, 90 Minutes' standing ([1]; 0.0005%, Table 2, distilled water 0.15): 0.49 ng/mL
8OHdG concentration, 90 Minutes' UV irradiation ([1]; 0.0005%, Table 2, distilled water 1.23): 0.30 ng/mL
8OHdG concentration, 90 Minutes' standing ([1]; 0.005%, Table 2, distilled water 0.15): 0.45 ng/mL
8OHdG concentration, 90 Minutes' UV irradiation ([1]; 0.005%, Table 2, distilled water 1.23): 0.18 ng/mL
8OHdG concentration, 90 Minutes' standing ([1]; 0.05%, Table 2, distilled water 0.15): 0.44 ng/mL
8OHdG concentration, 90 Minutes' UV irradiation ([1]; 0.05%, Table 2, distilled water 1.23): 0.42 ng/mL
evaluation in words: oxidation induction or antioxidant ability toward dG [1]: very stable antioxidant

O=c1[nH]c(=O)c2[nH]c(=O)[nH]c2[nH]1 [uric acid]
8OHdG concentration, 90 Minutes' standing ([1]; 0.01 μg/ml, Table 6, dissolving fluid 0.218): 0.176 ng/mL
8OHdG concentration, 90 Minutes' UV irradiation ([1]; 0.01 μg/ml, Table 6, dissolving fluid 1.007): 1.064 ng/mL
8OHdG concentration, 90 Minutes' standing ([1]; 0.1 μg/ml, Table 6, dissolving fluid 0.218): 0.193 ng/mL
8OHdG concentration, 90 Minutes' UV irradiation ([1]; 0.1 μg/ml, Table 6, dissolving fluid 1.007): 0.966 ng/mL
8OHdG concentration, 90 Minutes' standing ([1]; 1 μg/ml, Table 6, dissolving fluid 0.218): 0.175 ng/mL
8OHdG concentration, 90 Minutes' UV irradiation ([1]; 1 μg/ml, Table 6, dissolving fluid 1.007): 2.369 ng/mL
8OHdG concentration, 90 Minutes' standing ([1]; 10 μg/ml in distilled water+0.025% FBS, Table 6, dissolving fluid 0.218): 0.147 ng/mL
8OHdG concentration, 90 Minutes' UV irradiation ([1]; 10 μg/ml in distilled water+0.025% FBS, Table 6, dissolving fluid 1.007): 15.619 ng/mL
evaluation in words: oxidation induction or antioxidant ability toward dG [1]: high degree of DNA oxidation injury

catechin
8OHdG concentration, 90 Minutes' standing [1, 11]: 9.07 ng/mL
8OHdG concentration, 90 Minutes' standing [1, 12]: 133.71 ng/mL
evaluation in words: oxidation induction or antioxidant ability toward dG [1]: induces 8OHdG very strongly
